Laboratory results reported in PMC10726358 (Journal of Medicinal Chemistry, 2023).
Like-named read-outs stand apart in the source and are kept apart here.

Key:
[1] = molecular target: T1, MRGPRX2 (Homo sapiens, UniProt Q96LB1); assay: Cross screening: MRGPRX2 Agonist; format: biochemical
T1 construct: purchased GSK enhanced cross-screening panel (in-house)

[2] = molecular target: T2, PCAF (Homo sapiens, UniProt Q92831); assay: BROMOscan PCAF; format: binding
T2 construct: ≥2000-fold selectivity over all 20 non-BET bromodomains tested; purchased DiscoverX
Protocol: (§1) The BRD4 BD1/BD2 TR-FRET assay had been used routinely for this optimization work, and in order to better understand the BET BD1 domain selectivity profile, 31 was tested in TR-FRET BRD2, BRD3, and BRDT assays.
(§2) [52] BROMOscan recombinant protein binding assays were carried out at DiscoverX. (accessed April 4, 2023).

[3] = test system: pharmacologically relevant off-targets; assay: GSK enhanced cross-screening panel (whole panel); conditions: no activity at the concentrations tested
[4] = test system: MCP-1; assay: LPS-stimulated human whole blood (hWB) MCP-1 release assay; format: cell-based
Source text: The utility of a chemical probe in target validation is directly related to its quality, with important publications detailing requirements to aid researchers.[36]−[38] […] It was accepted that selectivity would be judged initially through a mutant BRD4 TR-FRET assay and would likely shift depending on the protein construct and assay format. […] Previous studies have shown that BET BD1 inhibition is sufficient to inhibit in vitro production of MCP-1 in LPS-stimulated hWB and, as such, served as a relevant measure of cellular target engagement and, concomitantly, proof of cellular permeability.[12],[39] Selectivity over other human bromodomains outside of the BET family, known collectively as non-BET bromodomains, was also required,[40] with a ≥ 100-fold selectivity window targeted. To ensure the molecules remained within developable chemical space, a target property forecast index (PFI) as defined by chromLogDpH7.4 + number of aromatic rings ≤6 was set.[41]
(§3) To understand cellular target engagement, 21 was tested in an LPS-stimulated hWB assay measuring inhibition of the inflammatory mediator MCP-1 secretion.
(§4) All TR-FRET and hWB cytokine assays have been described previously.[54]

[5] = molecular target: T3, PDE4B (Homo sapiens, UniProt Q07343); assay: Cross screening: PDE4B antagonist; format: biochemical
T3 construct: purchased GSK enhanced cross-screening panel (in-house)

[6] = molecular target: T4, M1 (Homo sapiens, UniProt P11229); assay: Cross screening: M1 Agonist; format: biochemical
T4 construct: purchased GSK enhanced cross-screening panel (in-house)

[7] = test system: Phospholipoidosis induction; assay: Cross screening: Phospholipoidosis induction
[8] = molecular target: KCNQ1 (Homo sapiens, UniProt P51787); assay: Cross screening: KCNQ1 blocker
[9] = molecular target: T5, Histamine 1 (Homo sapiens, UniProt P35367); assay: Cross screening: Histamine 1 antagonist; format: biochemical
T5 construct: purchased GSK enhanced cross-screening panel (in-house)

[10] = molecular target: T6, M2 (CHRM2) (Homo sapiens, UniProt P08172); assay: Cross screening: M2 (CHRM2) antagonist; format: biochemical
T6 construct: purchased GSK enhanced cross-screening panel (in-house)

[11] = molecular target: T7, BRD8 BD2 (Homo sapiens, UniProt Q9H0E9); assay: BROMOscan BRD8 BD2; format: binding
T7 construct: BRD8 BD2; purchased DiscoverX
Protocol: as §1, §2

[12] = molecular target: T8, Kv1.5 (KCNA5) (Homo sapiens, UniProt P22460); assay: Cross screening: Kv1.5 (KCNA5) blocker; format: biochemical
T8 construct: purchased GSK enhanced cross-screening panel (in-house)

[13] = test system: 12 multiplex human primary-cell-based assays; assay: BioMAP Diversity PLUS platform
Protocol: The X-axis lists the quantitative protein-based biomarker readouts measured in each system. The Y-axis represents a log-transformed ratio of the biomarker readouts for the drug-treated sample (n = 1) over vehicle controls (n ≥ 6). […] Biomarker key activities are described as modulated if these activities increase in some systems but decrease in others.
31 was added 1 h before stimulation of the cells and was present during the entire incubation period of the assays.

[14] = molecular target: T9, OPRM1 (Homo sapiens, UniProt P35372); assay: Cross screening: OPRM1 Agonist; format: biochemical
T9 construct: purchased GSK enhanced cross-screening panel (in-house)

[15] = molecular target: T10, NET (Homo sapiens, UniProt P23975); assay: Cross screening: NET blocker; format: biochemical
T10 construct: purchased GSK enhanced cross-screening panel (in-house)

[16] = molecular target: T11, AR (Homo sapiens, UniProt P10275); assay: Cross screening: AR Agonist; format: biochemical
T11 construct: purchased GSK enhanced cross-screening panel (in-house)

[17] = molecular target: T12, 5-HT2B (Homo sapiens, UniProt P41595); assay: Cross screening: 5-HT2B Agonist; format: biochemical
T12 construct: purchased GSK enhanced cross-screening panel (in-house)

[18] = molecular target: T13, D1 (Homo sapiens, UniProt P21728); assay: Cross screening: D1 antagonist; format: biochemical
T13 construct: purchased GSK enhanced cross-screening panel (in-house)

[19] = CAD aqueous solubility
Protocol: as §3
ChromatographicLogD at pH 7.4, artificial membrane permeability, CLND solubility, and CAD solubility were measured using published protocols.[55]

[20] = molecular target: T14, NK1 (Homo sapiens, UniProt P25103); assay: Cross screening: NK1 antagonist; format: biochemical
T14 construct: purchased GSK enhanced cross-screening panel (in-house)

[21] = molecular target: T15, Cyclooxygenase 2 (COX-2) (Homo sapiens, UniProt P35354); assay: Cross screening: Cyclooxygenase 2 (COX-2) antagonist; format: biochemical
T15 construct: purchased GSK enhanced cross-screening panel (in-house)

[22] = molecular target: T16, Dopamine 2 (D2) (Homo sapiens, UniProt P14416); assay: Cross screening: Dopamine 2 (D2) Antagonist; format: biochemical
T16 construct: purchased GSK enhanced cross-screening panel (in-house)

[23] = molecular target: T17, Adenosine A2a (Homo sapiens, UniProt P29274); assay: Cross screening: Adenosine A2a Human Agonist; format: biochemical
T17 construct: purchased GSK enhanced cross-screening panel (in-house)

[24] = test system: BRD4 BD1; format: binding, human; conditions: TR-FRET
Protocol: As a strategic decision, every compound synthesized across all of GSK’s bromodomain research projects was tested in both a BRD4 BD1 and a BRD4 BD2 TR-FRET assay as part of tier 1 data generation. […] LipE is a straightforward, yet powerful metric for medicinal chemistry teams to normalize potency relative to lipophilicity, a critical factor both for parameters of the human dose equation and also for promiscuity.[43],[44] To aid interpretation, diagonal lines representing different LipE values are shown, with the most desirable space found toward the top left-hand area of the plot representing molecules with the comparatively highest potency per unit of lipophilicity.
as §4

[25] = molecular target: T18, 5-HT2C (Homo sapiens, UniProt P28335); assay: Cross screening: 5-HT2C Agonist; format: biochemical
T18 construct: purchased GSK enhanced cross-screening panel (in-house)

[26] = molecular target: T19, CREBBP (Homo sapiens, UniProt Q92793); assay: BROMOscan CREBBP; format: binding
T19 construct: ≥2000-fold selectivity over all 20 non-BET bromodomains tested; purchased DiscoverX
Protocol: as §1, §2

[27] = pKa of the basic amine
[28] = molecular target: T20, SERT (Homo sapiens, UniProt P31645); assay: Cross screening: SERT blocker; format: biochemical
T20 construct: purchased GSK enhanced cross-screening panel (in-house)

T5 sequence (P35367 whole entry): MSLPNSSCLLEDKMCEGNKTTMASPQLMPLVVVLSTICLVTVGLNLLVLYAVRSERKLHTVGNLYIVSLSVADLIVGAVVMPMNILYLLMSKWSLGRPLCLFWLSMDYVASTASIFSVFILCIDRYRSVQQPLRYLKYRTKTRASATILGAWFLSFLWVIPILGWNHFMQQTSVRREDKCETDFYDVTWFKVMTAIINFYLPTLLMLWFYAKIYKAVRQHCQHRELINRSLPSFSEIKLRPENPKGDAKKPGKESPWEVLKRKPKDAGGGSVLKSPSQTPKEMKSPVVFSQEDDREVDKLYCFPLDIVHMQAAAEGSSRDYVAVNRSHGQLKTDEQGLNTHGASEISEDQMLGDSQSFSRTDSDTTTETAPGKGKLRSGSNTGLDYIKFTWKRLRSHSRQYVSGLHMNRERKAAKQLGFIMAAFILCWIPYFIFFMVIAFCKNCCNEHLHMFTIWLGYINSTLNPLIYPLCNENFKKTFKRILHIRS
T11 sequence (P10275 whole entry): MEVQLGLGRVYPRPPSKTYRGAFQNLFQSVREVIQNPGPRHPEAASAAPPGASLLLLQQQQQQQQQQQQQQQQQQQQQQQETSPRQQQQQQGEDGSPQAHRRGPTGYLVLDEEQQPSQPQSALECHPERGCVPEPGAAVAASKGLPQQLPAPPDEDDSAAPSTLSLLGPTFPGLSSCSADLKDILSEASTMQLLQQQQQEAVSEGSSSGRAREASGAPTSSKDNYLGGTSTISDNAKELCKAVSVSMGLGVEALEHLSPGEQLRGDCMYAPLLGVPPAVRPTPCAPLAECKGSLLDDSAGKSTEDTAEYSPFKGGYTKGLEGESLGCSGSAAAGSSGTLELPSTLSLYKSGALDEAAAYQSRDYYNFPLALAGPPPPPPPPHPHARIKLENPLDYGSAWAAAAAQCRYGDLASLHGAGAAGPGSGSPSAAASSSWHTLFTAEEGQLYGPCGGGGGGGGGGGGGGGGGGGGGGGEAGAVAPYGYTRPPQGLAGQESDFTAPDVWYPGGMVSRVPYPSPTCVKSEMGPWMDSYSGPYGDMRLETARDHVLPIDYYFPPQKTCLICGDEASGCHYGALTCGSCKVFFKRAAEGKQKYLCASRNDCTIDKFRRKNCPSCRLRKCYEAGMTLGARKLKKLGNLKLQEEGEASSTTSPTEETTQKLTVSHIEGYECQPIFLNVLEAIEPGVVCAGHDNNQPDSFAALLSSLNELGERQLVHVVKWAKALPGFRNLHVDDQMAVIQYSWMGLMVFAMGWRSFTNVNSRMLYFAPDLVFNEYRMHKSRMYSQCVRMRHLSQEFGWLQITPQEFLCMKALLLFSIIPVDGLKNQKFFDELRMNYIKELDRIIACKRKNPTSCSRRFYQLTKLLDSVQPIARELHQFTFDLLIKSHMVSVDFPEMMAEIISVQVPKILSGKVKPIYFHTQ
T3 sequence (Q07343 whole entry): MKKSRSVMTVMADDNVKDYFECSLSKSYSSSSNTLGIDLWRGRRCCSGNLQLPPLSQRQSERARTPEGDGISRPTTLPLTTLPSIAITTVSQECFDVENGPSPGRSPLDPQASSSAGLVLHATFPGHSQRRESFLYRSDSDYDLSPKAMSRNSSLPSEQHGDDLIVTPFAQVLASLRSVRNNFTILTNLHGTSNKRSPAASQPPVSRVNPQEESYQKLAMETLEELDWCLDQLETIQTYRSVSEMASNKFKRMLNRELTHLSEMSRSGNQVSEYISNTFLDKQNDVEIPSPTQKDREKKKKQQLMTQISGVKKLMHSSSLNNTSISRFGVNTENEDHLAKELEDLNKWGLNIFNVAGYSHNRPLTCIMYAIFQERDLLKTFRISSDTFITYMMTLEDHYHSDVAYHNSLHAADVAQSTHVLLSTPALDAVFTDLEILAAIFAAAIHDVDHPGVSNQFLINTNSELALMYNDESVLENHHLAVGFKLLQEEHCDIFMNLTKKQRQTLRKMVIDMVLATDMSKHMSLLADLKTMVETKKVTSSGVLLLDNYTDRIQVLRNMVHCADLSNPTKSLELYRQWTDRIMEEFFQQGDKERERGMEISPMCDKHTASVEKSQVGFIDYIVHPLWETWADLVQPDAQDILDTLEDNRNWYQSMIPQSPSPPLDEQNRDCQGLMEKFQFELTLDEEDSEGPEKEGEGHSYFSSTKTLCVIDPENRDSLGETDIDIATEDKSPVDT
T13 sequence (P21728 whole entry): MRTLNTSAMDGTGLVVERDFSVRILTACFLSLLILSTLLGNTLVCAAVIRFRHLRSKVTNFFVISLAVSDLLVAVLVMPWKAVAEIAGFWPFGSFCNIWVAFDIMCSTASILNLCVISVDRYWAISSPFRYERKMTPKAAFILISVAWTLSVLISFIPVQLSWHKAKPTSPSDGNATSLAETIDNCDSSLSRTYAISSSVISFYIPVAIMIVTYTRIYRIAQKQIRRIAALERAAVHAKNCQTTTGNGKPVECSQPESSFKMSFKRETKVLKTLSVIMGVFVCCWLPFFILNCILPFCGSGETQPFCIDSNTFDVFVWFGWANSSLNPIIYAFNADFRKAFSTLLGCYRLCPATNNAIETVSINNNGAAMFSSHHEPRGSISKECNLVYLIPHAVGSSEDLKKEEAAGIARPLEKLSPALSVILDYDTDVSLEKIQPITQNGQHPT
T16 sequence (P14416 whole entry): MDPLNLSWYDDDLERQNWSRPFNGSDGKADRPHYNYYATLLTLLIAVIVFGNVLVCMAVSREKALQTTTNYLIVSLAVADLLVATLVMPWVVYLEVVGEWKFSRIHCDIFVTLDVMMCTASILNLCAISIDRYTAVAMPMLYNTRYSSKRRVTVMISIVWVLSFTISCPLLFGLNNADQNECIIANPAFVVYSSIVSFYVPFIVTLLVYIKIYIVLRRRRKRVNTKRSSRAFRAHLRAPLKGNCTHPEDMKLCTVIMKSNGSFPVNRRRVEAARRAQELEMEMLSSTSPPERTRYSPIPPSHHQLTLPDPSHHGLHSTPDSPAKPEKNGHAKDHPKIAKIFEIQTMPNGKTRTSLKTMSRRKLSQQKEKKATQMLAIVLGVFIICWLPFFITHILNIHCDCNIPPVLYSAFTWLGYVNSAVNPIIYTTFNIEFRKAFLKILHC
Sequence of KCNQ1 (P51787 whole entry): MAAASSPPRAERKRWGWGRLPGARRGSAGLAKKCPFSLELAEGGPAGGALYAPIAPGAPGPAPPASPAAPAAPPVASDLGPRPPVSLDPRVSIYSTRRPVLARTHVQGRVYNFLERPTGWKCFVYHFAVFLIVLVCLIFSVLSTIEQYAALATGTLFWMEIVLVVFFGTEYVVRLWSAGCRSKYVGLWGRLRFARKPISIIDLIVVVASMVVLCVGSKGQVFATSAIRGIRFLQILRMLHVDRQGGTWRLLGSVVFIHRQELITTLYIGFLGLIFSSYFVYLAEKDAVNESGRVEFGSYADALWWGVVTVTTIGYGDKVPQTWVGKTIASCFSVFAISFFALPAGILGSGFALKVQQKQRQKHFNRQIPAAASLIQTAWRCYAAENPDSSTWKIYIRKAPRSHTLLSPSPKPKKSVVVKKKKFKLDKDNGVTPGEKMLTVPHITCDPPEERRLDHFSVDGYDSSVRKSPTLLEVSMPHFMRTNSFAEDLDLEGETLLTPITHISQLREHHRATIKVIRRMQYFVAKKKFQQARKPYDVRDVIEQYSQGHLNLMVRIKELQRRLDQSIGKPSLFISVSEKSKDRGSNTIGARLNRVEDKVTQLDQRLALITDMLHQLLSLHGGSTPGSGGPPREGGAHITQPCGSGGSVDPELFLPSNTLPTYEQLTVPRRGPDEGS
T9 sequence (P35372 whole entry): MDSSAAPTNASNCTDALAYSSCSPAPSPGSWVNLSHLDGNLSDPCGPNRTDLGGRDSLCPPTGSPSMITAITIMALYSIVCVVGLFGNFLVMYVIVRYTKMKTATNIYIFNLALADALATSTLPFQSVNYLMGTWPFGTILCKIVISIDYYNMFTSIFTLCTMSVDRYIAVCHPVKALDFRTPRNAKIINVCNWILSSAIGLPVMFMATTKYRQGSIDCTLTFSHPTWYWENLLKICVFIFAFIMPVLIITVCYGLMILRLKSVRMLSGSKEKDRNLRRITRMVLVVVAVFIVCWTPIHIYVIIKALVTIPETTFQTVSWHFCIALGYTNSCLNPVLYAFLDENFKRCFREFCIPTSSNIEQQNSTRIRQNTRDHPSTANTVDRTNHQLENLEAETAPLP
T2 sequence (Q92831 723-827 limits assumed): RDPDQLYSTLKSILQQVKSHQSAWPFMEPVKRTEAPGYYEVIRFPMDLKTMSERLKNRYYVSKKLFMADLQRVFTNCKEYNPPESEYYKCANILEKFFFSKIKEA
T18 sequence (P28335 33-458): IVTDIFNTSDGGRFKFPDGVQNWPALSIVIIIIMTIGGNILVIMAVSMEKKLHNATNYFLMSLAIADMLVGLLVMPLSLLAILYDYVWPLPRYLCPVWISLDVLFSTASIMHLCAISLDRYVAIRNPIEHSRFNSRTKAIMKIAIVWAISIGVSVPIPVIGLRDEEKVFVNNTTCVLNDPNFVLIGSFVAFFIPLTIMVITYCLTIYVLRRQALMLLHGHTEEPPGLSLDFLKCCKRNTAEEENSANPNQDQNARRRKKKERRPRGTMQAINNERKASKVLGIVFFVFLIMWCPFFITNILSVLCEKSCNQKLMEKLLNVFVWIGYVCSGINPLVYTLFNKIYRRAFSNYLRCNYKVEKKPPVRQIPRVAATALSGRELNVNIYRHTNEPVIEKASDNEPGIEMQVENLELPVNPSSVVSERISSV
T7 sequence (Q9H0E9 1099-1207 limits assumed): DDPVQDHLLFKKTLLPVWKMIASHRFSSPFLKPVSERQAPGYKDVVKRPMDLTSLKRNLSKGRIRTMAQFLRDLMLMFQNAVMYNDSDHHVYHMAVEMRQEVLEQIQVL
T19 sequence (Q92793 1085-1192 limits assumed): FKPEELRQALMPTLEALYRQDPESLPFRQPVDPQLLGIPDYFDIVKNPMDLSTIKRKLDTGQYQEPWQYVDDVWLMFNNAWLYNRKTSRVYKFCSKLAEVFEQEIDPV

## Cc1cc(-c2nc3ccccc3n2C[C@@H]2CCCN(C(=O)C3CCN(C(C)C)CC3)C2)cn(C)c1=O [Compound 31, (S)-5-(1-((1-(1-Isopropylpiperidine-4-carbonyl)piperidin-3-yl)methyl)-1H-benzo [d]imidazole-2-yl)-1,3-dimethylpyridin-2(1H)-one]
[1]
  pXC50 MRGPRX2 Agonist: < 4.0
[2]
  Kd: > 31.6 µM
[3]
  XC50 in enhanced cross-screening panel: > 25 µM
  pXC50 in enhanced cross-screening panel: < 4.6
[4]; Homo sapiens, read-out: hWB MCP-1 IC50
  IC50: 0.126 µM
[4]; LPS-stimulated human whole blood, read-out: hWB MCP-1 pIC50 (converted)
  IC50: 0.126 µM
[5]
  pXC50 PDE4B antagonist: < 4.0
[6]
  pXC50 M1 Agonist: < 4.3
[7]
  pXC50 Phospholipoidosis induction: < 4
[8]
  pXC50 KCNQ1 blocker: < 4.6
[9]
  pXC50 Histamine 1 antagonist: < 4.6
[10]
  pXC50 M2 (CHRM2) antagonist: < 4.3
[11]
  Kd: > 31.6 µM
[12]
  pXC50 Kv1.5 (KCNA5) blocker: < 4.3
[13]; 10 μM to 160 nM, MCP-1, IL-8, IL-1, IL-10, M-CSF, IL-6
  BioMAP immune-modulatory biomarker levels: decreases
[13]; 10 μM to 160 nM, human primary T cells, coronary artery smooth muscle cells, endothelial cells, fibroblasts
  BioMAP antiproliferative effects: antiproliferative effects
[13]; 10 μM, […], 630 nM, 160 nM
  BioMAP cytotoxicity: No cytotoxicity was observed
[14]
  pXC50 OPRM1 Agonist: < 4.0
[15]
  pXC50 NET blocker: < 4.0
[16]
  pXC50 AR Agonist: < 4.0
[17]
  pXC50 5-HT2B Agonist: < 4.0
[18]
  pXC50 D1 antagonist: < 4.0
[19]
  solubility: ≥ 257 µg/mL
[20]
  pXC50 NK1 antagonist: < 4.6
[21]
  pXC50 Cyclooxygenase 2 (COX-2) antagonist: < 4.0
[22]
  pXC50 Dopamine 2 (D2) Antagonist: < 4.0
[23]
  pXC50 Adenosine A2a Human Agonist: < 4.0
[24]
  BRD4 BD1 FRET pIC50: 7.8
  fold selectivity (BRD4 BD1 over BRD4 BD2): 1000 fold
[25]
  pXC50 5-HT2C Agonist: < 4.0
[26]
  Kd: 20 µM
[27]
  pKa: 9.6
[28]
  pXC50 SERT blocker: < 4.0
